Experimental data: patent publication US9458414B2, “Cleaning, surfactant, and personal care compositions” (SEGETIS, INC., priority 2012, dated 2016)
Values belong to the molecule of their own block, whether it stands above or below them.

Experiments:
[1] = Coupling of water and octanoic acid by hydrotropes (amount producing a single phase); type: physicochemical
Method: Hydrotropes were added to a two-component mixture of octanoic acid and deionized (DI) water to find the amount that produced a single phase from the two separate phases of water and octanoic acid.
The percent hydrotrope required to compatibilize phases (and the resulting percent octanoic acid) were calculated and the results are shown in Table 4 as well as FIG. 1.

[2] = Coupling of water and soy methyl ester by hydrotropes; type: physicochemical
Method: Hydrotropes were added to a two-component mixture of soy methyl ester and DI water to find the amount that produced a single phase from the two separate phases of water and soy methyl ester. The percent hydrotrope required to compatibilize the phases was calculated.

[3] = Coupling of water and castor oil by hydrotropes; type: physicochemical
[4] = Hard surface cleaning formulation pH testing over 7 days; type: physicochemical; conditions: 5 g solvent per 100 g
Method: Formulations were prepared by combining ingredients and mixing until homogeneous. Next, pH measurements were taken over 7 days.

[5] = Hard surface cleaning formulation freeze-thaw testing; type: physicochemical; conditions: for Freeze-thaw visual observation: Example 5 formulation containing the solvent, 0° C. freezer >12 hours, thaw to room temperature
Method: Formulations as in Example 5 were prepared by combining ingredients and mixing until homogeneous. Freeze-thaw testing was performed over 3 cycles. Each cycle was putting the formulations into a 0° C. freezer for greater than 12 hours, then taking them out and allowing the samples to thaw to room temperature and then making the visual observation.

[6] = Hard surface cleaning formulation heat cloud point testing; type: physicochemical; conditions: Example 5 formulation containing the solvent; for Cloud point: heated while mixing
Method: Formulations as in Example 5 were prepared by combining ingredients and mixing until homogeneous.

[7] = Vanillin composition in ketal alcohol (1a); type: physicochemical; conditions: 75% ketal alcohol (1a) to 25% vanillin by weight, room temperature
Method: Vanillin was dissolved into the ketal alcohol (1a) at room temperature using 75% ketal alcohol (1a) to 25% vanillin by weight.

[8] = Hair dye active solubility testing
Method: Two component mixtures using ketal alcohol (1a) and the actives shown in Table 13 were prepared by mixing the components at various proportions in a vial at room temperature and then heating in a lab oven at 80° C. for 10 minutes and then shaking.
Comparative formulations using EtLGK and ketal alcohol (1a) are shown below in Tables 14 and 15.

[9] = ratio of water:octanoic acid 10:90
[10] = ratio of water:octanoic acid 30:70
[11] = ratio of water:octanoic acid 50:50
[12] = ratio of water:octanoic acid 70:30
[13] = ratio of water:octanoic acid 90:10
[14] = water:octanoic acid 10:90 (DI water 0.5 g, octanoic acid 4.5 g)
[15] = water:octanoic acid 30:70 (DI water 1.5 g, octanoic acid 3.5 g)
[16] = water:octanoic acid 50:50 (DI water 5.0 g, octanoic acid 5.0 g)
[17] = water:octanoic acid 70:30 (DI water 3.5 g, octanoic acid 1.5 g)
[18] = water:octanoic acid 90:10 (DI water 4.5 g, octanoic acid 0.5 g)
[19] = ratio of water:soy methyl esters 10:90
[20] = ratio of water:soy methyl esters 30:70
[21] = ratio of water:soy methyl esters 50:50
[22] = ratio of water:soy methyl esters 70:30
[23] = ratio of water:soy methyl esters 90:10
[24] = ratio of water to castor oil 10:90
[25] = ratio of water to castor oil 30:70
[26] = ratio of water to castor oil 50:50
[27] = ratio of water to castor oil 70:30
[28] = ratio of water to castor oil 90:10

Wt % Hydrotrope required to compatibilize phases [1, 9]: 38% | Wt % Octanoic Acid (resulting, at compatibilization) [1, 9]: 55% | Wt % Hydrotrope required to compatibilize phases [1, 10]: 59% | Wt % Octanoic Acid (resulting, at compatibilization) [1, 10]: 29% | Wt % Hydrotrope required to compatibilize phases [1, 11]: 69% | Wt % Octanoic Acid (resulting, at compatibilization) [1, 11]: 15% | Wt % Hydrotrope required to compatibilize phases [1, 12]: 66% | Wt % Octanoic Acid (resulting, at compatibilization) [1, 12]: 10% | Wt % Hydrotrope required to compatibilize phases [1, 13]: 58% | Wt % Octanoic Acid (resulting, at compatibilization) [1, 13]: 4% | Amount of hydrotrope that produced a single phase [1, 14]: 3.11 grams | Amount of hydrotrope that produced a single phase [1, 15]: 7.2 grams | Amount of hydrotrope that produced a single phase [1, 16]: 22.68 grams | Amount of hydrotrope that produced a single phase [1, 17]: 9.79 grams | Amount of hydrotrope that produced a single phase [1, 18]: 6.84 grams | Wt % Hydrotrope required to compatibilize the phases [2, 19]: 78% | Wt % Soy Methyl Esters (at compatibilization) [2, 19]: 20% | Wt % Hydrotrope required to compatibilize the phases [2, 20]: 83% | Wt % Soy Methyl Esters (at compatibilization) [2, 20]: 12% | Wt % Hydrotrope required to compatibilize the phases [2, 21]: 86% | Wt % Soy Methyl Esters (at compatibilization) [2, 21]: 7% | Wt % Hydrotrope required to compatibilize the phases [2, 22]: 86% | Wt % Soy Methyl Esters (at compatibilization) [2, 22]: 4% | Wt % Hydrotrope required to compatibilize the phases [2, 23]: 84% | Wt % Soy Methyl Esters (at compatibilization) [2, 23]: 2% | Wt % Castor oil (at compatibilization) [3, 24]: 35% | Wt % Hydrotrope required to compatibilize phases [3, 24]: 61% | Wt % Castor oil (at compatibilization) [3, 25]: 17% | Wt % Hydrotrope required to compatibilize phases [3, 25]: 76% | Wt % Castor oil (at compatibilization) [3, 26]: 9% | Wt % Hydrotrope required to compatibilize phases [3, 26]: 82% | Wt % Castor oil (at compatibilization) [3, 27]: 4% | Wt % Hydrotrope required to compatibilize phases [3, 27]: 86% | Wt % Castor oil (at compatibilization) [3, 28]: 1% | Wt % Hydrotrope required to compatibilize phases [3, 28]: 85% | pH stability of the formulation containing the solvent [4]: underwent significant pH drift downward | Freeze-thaw visual observation ([5]; Cycle 1): stable; | Freeze-thaw visual observation ([5]; Cycle 2): gradient; | Freeze-thaw visual observation ([5]; Cycle 3): gradient; | Cloudiness on heating [6]: showed no signs of cloudiness | Cloud point [6]: >100 °C
SMILES: CCOC(=O)CCC1(C)OCC(CO)O1 (centres unmarked) [EtLGK, glycerol ketal of ethyl levulinic acid]

Wt % Hydrotrope required to compatibilize phases [1, 9]: 31% | Wt % Octanoic Acid (resulting, at compatibilization) [1, 9]: 62% | Wt % Hydrotrope required to compatibilize phases [1, 10]: 53% | Wt % Octanoic Acid (resulting, at compatibilization) [1, 10]: 33% | Wt % Hydrotrope required to compatibilize phases [1, 11]: 54% | Wt % Octanoic Acid (resulting, at compatibilization) [1, 11]: 23% | Wt % Hydrotrope required to compatibilize phases [1, 12]: 55% | Wt % Octanoic Acid (resulting, at compatibilization) [1, 12]: 14% | Wt % Hydrotrope required to compatibilize phases [1, 13]: 46% | Wt % Octanoic Acid (resulting, at compatibilization) [1, 13]: 5% | Amount of hydrotrope that produced a single phase [1, 14]: 2.27 grams | Amount of hydrotrope that produced a single phase [1, 15]: 5.63 grams | Amount of hydrotrope that produced a single phase [1, 16]: 11.81 grams | Amount of hydrotrope that produced a single phase [1, 17]: 6.07 grams | Amount of hydrotrope that produced a single phase [1, 18]: 4.33 grams | Wt % Hydrotrope required to compatibilize the phases [2, 19]: 58% | Wt % Soy Methyl Esters (at compatibilization) [2, 19]: 38% | Wt % Hydrotrope required to compatibilize the phases [2, 20]: 73% | Wt % Soy Methyl Esters (at compatibilization) [2, 20]: 19% | Wt % Hydrotrope required to compatibilize the phases [2, 21]: 81% | Wt % Soy Methyl Esters (at compatibilization) [2, 21]: 10% | Wt % Hydrotrope required to compatibilize the phases [2, 22]: 83% | Wt % Soy Methyl Esters (at compatibilization) [2, 22]: 5% | Wt % Hydrotrope required to compatibilize the phases [2, 23]: 81% | Wt % Soy Methyl Esters (at compatibilization) [2, 23]: 2% | Wt % Castor oil (at compatibilization) [3, 24]: 32% | Wt % Hydrotrope required to compatibilize phases [3, 24]: 64% | Wt % Castor oil (at compatibilization) [3, 25]: 21% | Wt % Hydrotrope required to compatibilize phases [3, 25]: 71% | Wt % Castor oil (at compatibilization) [3, 26]: 11% | Wt % Hydrotrope required to compatibilize phases [3, 26]: 79% | Wt % Castor oil (at compatibilization) [3, 27]: 5% | Wt % Hydrotrope required to compatibilize phases [3, 27]: 82% | Wt % Castor oil (at compatibilization) [3, 28]: 2% | Wt % Hydrotrope required to compatibilize phases [3, 28]: 84% | Freeze-thaw visual observation ([5]; Cycle 1): stable; | Freeze-thaw visual observation ([5]; Cycle 2): gradient; | Freeze-thaw visual observation ([5]; Cycle 3): gradient; | Cloudiness on heating [6]: showed no signs of cloudiness | Cloud point [6]: >100 °C
SMILES: CC1COC(C)(CCCO)O1 (centres unmarked) [Ketal alcohol (1a)]
Freeze-thaw performance overall ([5]; formulation containing the solvent, 3 cycles): performed similarly to or better than the 2-butoxyethanol

SMILES: CCOC(=O)CCC1(C)OCC(CO)O1 (centres unmarked) [Ketal alcohol (1a)]
pH stability of the formulation containing the solvent [4]: maintained the same pH as the formulation containing 2-butoxyethanol and the control formulation

SMILES: COc1cc(C=O)ccc1O [Vanillin]
Appearance of mixture in ketal alcohol (1a) [7]: homogeneous clear liquid with no signs of precipitate

SMILES: Nc1ccc(N)cc1 [p-phenylene diamine]
Ketal Alcohol (1a) Solubility ([8]; Table 15, weight percentage active 1%): insoluble | Ketal Alcohol (1a) Solubility ([8]; weight percentage active 1%, 80° C. 10 minutes, shaking, room temperature 24 hours): soluble | EtLGK Solubility ([8]; weight percentage active 5% in EtLGK): soluble | Ketal Alcohol (1a) Solubility ([8]; weight percentage active 5%, 80° C. 10 minutes, shaking, room temperature 24 hours): soluble | Ketal Alcohol (1a) Solubility ([8]; weight percentage active 10%, 80° C. 10 minutes, shaking, room temperature 24 hours): insoluble
